Laboratory results as given in paper PMC9106635, “Stimulation of the atypical chemokine receptor 3 (ACKR3) by a small-molecule agonist attenuates fibrosis in a preclinical liver but not lung injury model” (Cellular and Molecular Life Sciences: CMLS, 2022).

How the values were obtained:
hCCR5 = target: T1, hCCR5 (Homo sapiens, UniProt P51681); assay: Ca2+ mobilization assay, U87.CD4.CCR5 cells, CCL5-induced; assay type: cell-based; details: antagonism of CCL5 response
T1 construct: expressed in transfected cells; host or cells: U87.CD4.CCR5
Protocol: The calcium (Ca^2+) mobilization assay was described in detail before. Briefly, U87.CD4.CXCR4 or U87.CD4.CCR5 cells (2 × 10^4 cells per well in DMEM/10% FBS/0.01 M HEPES) were seeded in gelatin-coated (Sigma-Aldrich; 0.1% gelatin in DPBS) black-walled 96-well plates and incubated overnight at 37 °C and 5% CO2. The next day, cells were loaded with the fluorescent Ca^2+ indicator Fluo-2 acetoxymethyl (AM) ester (4 μM final concentration; Abcam) and incubated at RT in the dark for 45 min. Then, cells were washed with assay buffer (see above) and subsequently incubated with different concentrations of compound for ~ 10 min prior to addition of 6.25 nM CXCL12 (in case of CXCR4) or 6.4 nM CCL5 (in case of CCR5). Fluctuations in intracellular Ca^2+ levels were measured in real time by the FLIPR Tetra® device (Molecular Devices) in all 96 wells simultaneously. The response (Relative Light Units, RLUs) over baseline was calculated (ScreenWorks 4.0® software, Molecular Devices) by dividing the RLUs by a base line value measured just before addition of CXCL12 or CCL5, respectively. Inhibition of the Ca^2+ response was determined taking into account negative (i.e., untreated cells without stimulation) and positive (i.e., untreated cells stimulated with either CXCL12 or CCL5) control samples.

[1] = tested on: mouse CXCL12 plasma levels; assay: Mouse CXCL12 plasma determination (Bio-Plex); assay type: in vivo
Protocol: CXCL12 plasma levels were determined using Bio-Plex Pro Mouse Chemokine SDF-1a/CXCL12 (Bio-Rad) according to the manufacturer’s protocol. Prior to the assay mouse plasma samples were centrifuged for 15 min at 1000×g at 4 °C to remove any particulates. A four-fold dilution series of mouse CXCL12, blank samples and 1:5 diluted plasma samples were prepared. A 1:1 mixture of magnetic beads (50 µL/well) and sample (50 µL/well) was added to the 96-well assay plate, which was then sealed and incubated (30 min at RT) on a plate shaker at 850 rpm protected from light. After washing three times with wash buffer 25 µL/well detection antibody was added and the plate was again incubated as described above. The plate was again washed three times (100 µL/well wash buffer) followed by the addition of streptavidin-PE (50 µL/well). The plate was sealed and incubated (10 min at RT) at 850 rpm protected from light. Finally, the plate was again washed three times and the magnetic beads were resuspended in fresh assay buffer (152 µL/well). The plate was sealed and shaken for an additional 30 s before being analyzed with the Bioplex 200 System. Data were analyzed with the Bio-Plex Manager Software.

[2] = tested on: CCl4-induced liver fibrosis in C57BL/6J mice; assay: CCl4-induced liver fibrosis model; assay type: in vivo, mouse; details: 15 mg/kg/dose SC BID
Protocol: A preclinical mouse model for CCl4-induced liver fibrosis was performed at the Department of Metabolic Health Research, The Netherlands Organisation for Applied Scientific Research (TNO) (Leiden, The Netherlands). Fifty-two male C57BL/6J mice were matched on body weight prior to the study and divided into five groups (experimental study design, Supplementary Figure S1a). Starting at day 0, 10–12-week-old mice were intraperitoneally (i.p.) injected (three times a week) with mineral oil (group 1) or CCl4 (15% v/v in mineral oil, group 2–5) for a total of 28 days. At day 0, mice received subcutaneous treatment with compound 18a (15 mg/kg/dose, twice daily (BID), group 3), or corresponding vehicle control (23% HPBCD, twice daily (BID), groups 1 and 2)], or received daily gavage with either an ALK5/ALK4 kinase inhibitor [SM 16 (45 mg/kg/dose, PO, QD, group 5) or its corresponding vehicle control (β-cyclodextrin sulfobutyl ether sodium salt or captisol, PO, QD, group 4)]. Plasma samples were collected by a tail vein bleed at day 7. At day 28, mice were sacrificed using CO2 and additional plasma samples and liver lobes were collected. As a primary endpoint collagen surface area was determined on cross-sections of the lateral left lobe by picro sirius red (PSR) staining. As a secondary endpoint collagen content (hydroxyproline) of the left median lobe was analyzed using a chromogenic assay according to the manufacturer’s instructions (QuickZyme Biosciences, Leiden, The Netherlands).

[3] = design: method as in PMID 29627981; details: mice; cited from earlier work
[4] = tested on: isoproterenol-induced cardiac fibrosis in mice; design: method as in PMID 29627981; details: isoproterenol-induced cardiac injury; cited from earlier work
[5] = tested on: fibrosis-associated genes (lung mRNA); assay: qRT-PCR of fibrosis-associated genes in lung tissue; assay type: in vivo, mouse
Protocol: Total RNA was prepared from snap-frozen liver tissue (the lateral and medial right lobes and the caudate lobe; Supplementary Figure S1a) or lung tissue (cranial right lobe; Supplementary Figure S1b) after homogenization on ice in TRIZol. For quantitative qRT-PCR, cDNA was made from 0.5 μg of RNA using the GoScript reverse transcription system (Promega) according to the manufacturer’s protocol. QRT-PCR was performed (for 40 cycles) with the Quantstudio3 Applied Biosystems (ABI) system using Sybr green (ABI) followed by melting curve analysis. Expression was calculated using the delta threshold cycle (ΔCT) method with Gapdh as reference gene (previously validated as stable house-keeping gene in the CCl4 model and in the bleomycin model, current study, not shown). Forward (F) and reverse (R) primer sequences were (5’-3’): Gapdh: F: ccgcatcttcttgtgcagt, R: […]; Col1a1: F: […], R: […]; Ackr3: F: […], R: […]; Cxcr4: F: […], R: […]; Golm1: F: […], R: […]; Lgals3: F: […], R: […]; Unc93b1: F: […], R: […]; Slc15a3: F: […], R: […]; Sec24d: F: […], R: […]; Cxcl10: F: […], R: […]; and Clec4n: F: […], R: […]. Data are expressed as mean ± sem. […] The scaled counts were base log2-transformed and data were expressed as fold-change versus the reference condition (CCl4 + 23% HPBCD). […]

T1 sequence (P51681 whole entry): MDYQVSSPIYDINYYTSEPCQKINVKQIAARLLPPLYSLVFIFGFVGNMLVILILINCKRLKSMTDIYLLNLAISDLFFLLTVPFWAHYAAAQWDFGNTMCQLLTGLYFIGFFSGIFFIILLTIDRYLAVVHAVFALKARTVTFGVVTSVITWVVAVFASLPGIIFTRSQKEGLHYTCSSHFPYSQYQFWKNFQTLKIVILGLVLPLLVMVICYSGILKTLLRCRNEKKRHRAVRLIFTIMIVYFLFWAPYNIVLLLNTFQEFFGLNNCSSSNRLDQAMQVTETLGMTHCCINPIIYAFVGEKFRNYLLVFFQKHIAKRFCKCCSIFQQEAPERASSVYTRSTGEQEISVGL

- IC50 (hCCR5): > 40 µM
SMILES: CCc1ccn2ccnc2c1N1CCCN(C(CC(N)=O)C2CCN(C(=O)C3CC4CCC3O4)CC2)CC1 (centres unmarked) [compound 18a]
- increase of plasma CXCL12-levels ([1]; liver fibrosis model, day 7, 15 mg/kg/dose SC BID): ~ threefold
- plasma CXCL12 levels ([1]; liver fibrosis model, day 28, 15 mg/kg/dose SC BID): led to increased CXCL12 levels
- plasma CXCL12 levels ([1]; lung fibrosis model, day 21, 15 mg/kg/dose SC BID, vs vehicle (23% HPBCD)): increased mouse CXCL12 plasma levels
- liver weight per body weight ([2]; CCl4-treated mice, day 28): not affected by compound 18a treatment
- collagen levels by PSR staining ([2]; day 28, vs CCl4 + 23% HPBCD, P = 0.04): modestly, but significantly, reduced collagen levels
- hydroxyproline levels in liver ([2]; day 28, vs CCl4 + 23% HPBCD, P = 0.06): near significant reduction of hydroxyproline levels
- oral bioavailability [3]: not orally bioavailable
- cardiac fibrosis [4]: protect mice from cardiac fibrosis
- Lgals3 expression in lung tissue ([5]; bleomycin model, day 21, qRT-PCR): similarly lowered
- number of these 8 genes similarly affected in lung ([5]; bleomycin-exposed lungs, day 21): 1
